pEC50, pIC50: −log10 of the molar value.
Experiments:
[1] = molecular target: T1, Peroxisome proliferator-activated receptor alpha (Homo sapiens) (UniProt Q07869); experiment: Activity at human PPARalpha in CV1 cells by CTF assay relative to 2-(4-{2-[3-(2,4-difluoro-phenyl)-1-heptyl-ureido]-ethyl}-phenoxy)-2-methyl-butyric acid; assay type: cell-based; details: CV-1
T1 sequence (whole entry): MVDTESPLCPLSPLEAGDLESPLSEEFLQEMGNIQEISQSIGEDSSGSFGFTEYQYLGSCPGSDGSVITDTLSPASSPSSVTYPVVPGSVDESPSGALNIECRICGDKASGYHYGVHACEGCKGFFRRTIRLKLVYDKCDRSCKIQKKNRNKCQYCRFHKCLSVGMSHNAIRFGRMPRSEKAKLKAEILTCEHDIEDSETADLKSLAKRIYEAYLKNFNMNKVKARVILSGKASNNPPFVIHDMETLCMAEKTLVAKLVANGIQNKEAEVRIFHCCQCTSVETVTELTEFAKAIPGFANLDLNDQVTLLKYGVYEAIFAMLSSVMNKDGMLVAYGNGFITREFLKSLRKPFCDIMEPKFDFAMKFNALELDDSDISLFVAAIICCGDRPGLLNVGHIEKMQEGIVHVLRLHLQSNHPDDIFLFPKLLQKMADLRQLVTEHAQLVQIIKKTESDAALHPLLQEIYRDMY

[2] = molecular target: T2, Peroxisome proliferator-activated receptor alpha (Homo sapiens, UniProt Q07869); experiment: Displacement of [3H]2-(4-{2-[3-(2,4-difluoro-phenyl)-1-heptyl-ureido]-ethyl}-phenoxy)-2-methyl-butyric acid from hPPARalpha
T2 sequence (Q07869 whole entry): T1 sequence (whole entry)

[3] = molecular target: T2, Peroxisome proliferator-activated receptor alpha; experiment: Activity at human PPARalpha in CV1 cells; assay type: cell-based, CV-1
[4] = molecular target: T3, Peroxisome proliferator-activated receptor gamma (Homo sapiens, UniProt P37231)
T3 sequence (P37231 whole entry): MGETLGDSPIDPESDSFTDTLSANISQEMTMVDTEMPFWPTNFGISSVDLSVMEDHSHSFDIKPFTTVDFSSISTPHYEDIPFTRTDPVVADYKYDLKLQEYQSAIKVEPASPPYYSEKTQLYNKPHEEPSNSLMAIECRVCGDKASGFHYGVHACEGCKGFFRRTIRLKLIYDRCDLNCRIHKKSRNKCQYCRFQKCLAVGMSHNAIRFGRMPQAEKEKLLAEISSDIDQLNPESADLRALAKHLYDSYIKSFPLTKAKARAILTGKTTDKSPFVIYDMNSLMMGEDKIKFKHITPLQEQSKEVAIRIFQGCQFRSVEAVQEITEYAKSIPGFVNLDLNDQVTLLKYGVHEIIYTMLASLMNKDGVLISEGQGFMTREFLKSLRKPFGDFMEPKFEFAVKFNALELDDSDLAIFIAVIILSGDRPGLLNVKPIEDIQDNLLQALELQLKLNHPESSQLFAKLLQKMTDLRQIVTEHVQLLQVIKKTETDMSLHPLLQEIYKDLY
Description: Displacement of [3H]2-methyl-2-(4-{3-propyl-(5-pyridin-2yl-thiophene-2-sulfonyl)-amino]-pro-pyl}-phenoxy)-propionic acid from human PPARgamma

[5] = molecular target: T3, Peroxisome proliferator-activated receptor gamma; remark: listed apart in the source
Description: Activity at human PPARgamma in CV1 cells

Rattus norvegicus = experiment: Reduction of plasma glucose level in orally dosed Zucker diabetic fatty rat; assay type: functional; details: ZDF, po
Mus musculus = experiment: Reduction of plasma glucose level in db/db mouse at 30 mg/kg, po relative to rosiglitazone; assay type: functional; parameters: scale not given: the % may be the effect or the level left

Row | SMILES | Efficacy [1] [%] | pIC50 [2] | pEC50 [3] | pIC50 [4] | pEC50 [5] | ED50 (Rattus norvegicus) [mg/kg] | Activity (Mus musculus) [%]
1 | Cc1oc(-c2ccccc2)nc1CCOc1ccc(CCC(=O)O)c(CNC(=O)Oc2cnccn2)c1 | 60 | 7.28 | 7.46 | 7.77 | 8.15 |  | 
2 | Cc1sc(N2CCOCC2)nc1CCOc1ccc(CCC(=O)O)c(CNC(=O)OC(C)C)c1 | 37 | 5.83 | 6.01 | 7.66 | 7.55 | 0.12 | 58
3 | Cc1oc(-c2ccc(Oc3ccccc3)cc2)nc1CCOc1ccc(CCC(=O)O)c(CNC(=O)OC(C)C)c1 | 46 | 6.29 | 7.11 | 7.30 | 8.70 | 0.05 | 
4 | Cc1oc(-c2ccccc2)nc1CCOc1ccc(CCC(=O)O)c(CNC(=O)NCc2ccccc2)c1 | 5 | < 5.00 |  | 6.15 | 5.57 |  | 
5 | Cc1oc(-c2ccccc2)nc1CCOc1ccc(CCC(=O)O)c(CNC(=O)OC(C)C)c1 | 51 | 6.84 | 7.15 | 7.59 | 8.10 |  | 58
6 | CC(C)(Oc1ccc(C(=O)c2ccc(Cl)cc2)cc1)C(=O)O [FENOFIBRIC ACID] | 35 | < 5.00 | 5.58 |  |  |  | 
7 | Cc1oc(-c2ccccc2)nc1CCOc1ccc(CCC(=O)O)c(CNC(=O)CCc2ccccc2)c1 | 32 | 5.30 | 5.55 | 6.79 | 5.99 |  | 
8 | Cc1oc(-c2ccc(-c3ccccc3)cc2)nc1CCOc1ccc(CCC(=O)O)c(CNC(=O)OC(C)C)c1 |  | 5.46 | 6.07 | 7.33 | 7.72 | 0.02 | 56
9 | Cc1oc(-c2ccccc2)nc1CCOc1ccc(CCC(=O)O)c(CNS(=O)(=O)Cc2ccccc2)c1 | 33 | 5.47 | 5.53 | 7.14 | 6.28 |  | 
10 | Cc1oc(-c2ccc(-c3ncccn3)cc2)nc1CCOc1ccc(CCC(=O)O)c(CNC(=O)OC(C)C)c1 | 37 | 5.00 | 6.05 | 7.30 | 8.40 | 0.04 | 52
11 | Cc1oc(-c2ccc(-c3ccccc3)cc2)nc1CCOc1ccc(CCC(=O)O)c(CNC(=O)Oc2cnccn2)c1 | 68 | 6.35 | 6.70 | 7.59 | 8.70 | 0.03 | 87
12 | Cc1oc(-c2ccccc2)nc1CCOc1ccc(CCC(=O)O)c(CNC(=O)OCc2ccccc2)c1 | 54 | 6.36 | 6.29 | 7.04 | 6.94 |  | 

— ChEMBL document CHEMBL1146164, “Synthesis and evaluation of aminomethyl dihydrocinnamates as a new class of PPAR ligands” (Bioorg Med Chem Lett, 2006)
